Patent US8735406B2, “8-oxodihydropurine derivative” (Dainippon Sumitomo Pharma Co., Ltd., priority 2009, dated 2014)
Counter-ions that a name gives are not always drawn. Like-named read-outs stand apart in the source and are kept apart here.

Molecular target: T1, FAAH (Rattus norvegicus, UniProt P97612)
T1 construct: Preparation of Rat Brain Membranes Preparations (FAAH Enzyme Solution); from tissue; host or cells: rat cerebrum (brain membrane preparation)
T1 sequence (P97612 1-579): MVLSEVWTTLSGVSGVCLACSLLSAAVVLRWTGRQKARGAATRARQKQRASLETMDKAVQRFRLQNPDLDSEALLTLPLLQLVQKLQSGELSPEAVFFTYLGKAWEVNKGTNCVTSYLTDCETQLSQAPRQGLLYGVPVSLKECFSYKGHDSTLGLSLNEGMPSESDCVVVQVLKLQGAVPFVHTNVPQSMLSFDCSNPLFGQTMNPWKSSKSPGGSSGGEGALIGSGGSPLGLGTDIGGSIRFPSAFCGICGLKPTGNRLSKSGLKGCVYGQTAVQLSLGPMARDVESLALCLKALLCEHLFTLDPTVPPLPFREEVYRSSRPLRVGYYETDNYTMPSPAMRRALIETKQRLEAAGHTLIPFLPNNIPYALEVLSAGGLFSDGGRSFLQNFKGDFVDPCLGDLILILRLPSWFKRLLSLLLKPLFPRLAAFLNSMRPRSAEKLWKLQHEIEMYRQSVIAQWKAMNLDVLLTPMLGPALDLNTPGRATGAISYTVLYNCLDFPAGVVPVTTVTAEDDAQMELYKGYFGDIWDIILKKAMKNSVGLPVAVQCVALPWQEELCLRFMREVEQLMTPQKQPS
Assay: Determination of FAAH inhibitory activity in rat (rat brain membrane preparations, [3H]-anandamide hydrolysis)
Type: biochemical
Conditions: rat brain membrane preparations; for IC50: read-out: FAAH Inhibition IC50
How it was run: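 Compounds tested from 0.1 nM to 1 μM to derive IC50 against FAAH hydrolysis in rat brain membrane preparations (100 μg/mL). A 10-min 37 °C preincubation was followed by 10 min with [3H]-anandamide (2 nM) mixed with 2 μM unlabelled anandamide. Radioactive ethanolamine was extracted into the water/methanol layer and counted.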

[1] = at 100 nM, read-out: FAAH Inhibition Inhibition Rate at 100 nM

| Structure (SMILES) | inhibition at 0.1 µM (100 nM test substance, read-out: FAAH Inhibition, Inhibition Rate at 100 nM) [%] | IC50 (test substance 0.1 nM to 1 μM) [nM] | inhibition at 0.1 µM [1] [%] | IC50 [nM] |
| --- | --- | --- | --- | --- |
| Cn1c(=O)n(C(=O)N2CCC2)c2nc(CCc3ccc(OCC(F)F)cc3)ncc21 [Example 593, 9-(Azetidin-1-ylcarbonyl)-2-{2-[4-(2,2-difluoroethoxy)phenyl]ethyl}-7-methyl-7,9-dihydro-8H-purine-8-one] | 58 | 59 | – | – |
| Cn1c(=O)n(C(=O)N2CCC2)c2nc(CCc3cccc(OCC(F)(F)F)c3)ncc21 [Example 612, 9-(Azetidin-1-ylcarbonyl)-7-methyl-2-{2-[3-(2,2,2-trifluoroethoxy)phenyl]ethyl}-7,9-dihydro-8H-purine-8-one] | – | – | 96 | 9 |
| Cn1c(=O)n(C(=O)N2CCC2)c2nc(CCc3ccc(OCC(F)(F)F)cc3)ncc21 [Example 613, 9-(Azetidin-1-ylcarbonyl)-7-methyl-2-{2-[4-(2,2,2-trifluoroethoxy)phenyl]ethyl}-7,9-dihydro-8H-purine-8-one] | – | – | 95 | 12 |
| CN(C)C(=O)n1c(=O)n(C)c2cnc(CCCc3ccccc3)nc21 [Example 614] | – | – | 81 | 28 |
| CN(C)C(=O)n1c(=O)n(C)c2cnc(CCCC3CCCCC3)nc21 [Example 616] | – | – | 99 | 10 |
| CN(C)C(=O)n1c(=O)n(C)c2cnc(CCCCc3ccccc3)nc21 [Example 618] | – | – | 101 | 10 |
| Cn1c(=O)n(C(=O)N2CCC2)c2nc(CCc3ccc4c(c3)CCO4)ncc21 [Example 620] | – | – | 87 | 88 |
| Cn1c(=O)n(C(=O)N2CC(c3ccccc3)C2)c2nc(C3CC3)ncc21 [Example 631] | – | – | 77 | 36 |
| CCc1ncc2c(n1)n(C(=O)N1CC(c3ccccc3)C1)c(=O)n2C [Example 634] | – | – | 95 | 98 |
| CCc1ncc2c(n1)n(C(=O)N1CC(c3cccc(F)c3)C1)c(=O)n2C [Example 635] | – | – | 88 | 44 |
| CN(C)C(=O)n1c(=O)n(C)c2cnc(CCOc3ccc(C(F)(F)F)cc3)nc21 [Example 638, N,N,7-trimethyl-8-oxo-2-{2-[4-(trifluoromethyl)phenoxy]ethyl}-7,8-dihydro-9H-purine-9-carboxamide hydrochloric acid salt] | – | – | 95 | 12 |
| CCCn1c(=O)n(C(=O)N(C)C)c2nc(CCc3ccccc3F)ncc21 [Example 646, 2-[2-(2-Fluorophenyl)ethyl]-N,N-dimethyl-8-oxo-7-propyl-7,8-dihydro-9H-purine-9-carboxamide] | – | – | 117 | 13 |
| CCn1c(=O)n(C(=O)N2CCC2)c2nc(CCc3ccccc3F)ncc21 [Example 649, 9-(Azetidin-1-ylcarbonyl)-7-ethyl-2-[2-(2-fluorophenyl)ethyl]-7,9-dihydro-8H-purine-8-one] | – | – | 90 | 17 |
| CCn1c(=O)n(C(=O)N2CCC2)c2nc(CCc3cccc(F)c3)ncc21 [Example 650, 9-(Azetidin-1-ylcarbonyl)-7-ethyl-2-[2-(3-fluorophenyl)ethyl]-7,9-dihydro-8H-purine-8-one] | – | – | 96 | 10 |
| CN(C)C(=O)n1c(=O)n(C)c2cnc(Cc3cccc(C(F)(F)F)c3)nc21 [Example 654, N,N,7-Trimethyl-8-oxo-2-[3-(trifluoromethyl)benzyl]-7,8-dihydro-9H-purine-9-carboxamide] | – | – | 110 | 11 |
| CCn1c(=O)n(C(=O)N2CC(c3ccccc3)C2)c2cnc(COC)nc21 [Example 655, 9-Ethyl-2-(methoxymethyl)-7-[(3-phenylazetidin-1-yl)carbonyl]-7,9-dihydro-8H-purine-8-one] | – | – | 102 | 10 |

More lines, in order of falling IC50, values ahead:

| inhibition at 0.1 µM (100 nM test substance, read-out: FAAH Inhibition, Inhibition Rate at 100 nM) [%] | IC50 (test substance 0.1 nM to 1 μM) [nM] | inhibition at 0.1 µM [1] [%] | IC50 [nM] | Structure (SMILES) |
| --- | --- | --- | --- | --- |
| – | – | 48 | 105 | CCCc1ncc2c(n1)n(C)c(=O)n2C(=O)N1CC(Oc2ccccc2CC)C1 [Example 629] |
| – | – | 94 | 78 | CCCc1ncc2c(n1)n(C(=O)N1CC(c3ccc(F)cc3)C1)c(=O)n2C [Example 636] |
| – | – | 84 | 31 | Cn1c(=O)n(C(=O)N2CC(c3cccc(F)c3)C2)c2nc(C3CC3)ncc21 [Example 632] |
| – | – | 87 | 27 | CCCn1c(=O)n(C(=O)N(C)C)c2nc(CCc3ccc(F)cc3)ncc21 [Example 648, 2-[2-(4-Fluorophenyl)ethyl]-N,N-dimethyl-8-oxo-7-propyl-7,8-dihydro-9H-purine-9-carboxamide] |
| – | – | 98 | 20 | CCn1c(=O)n(C(=O)N(C)C)c2nc(CCc3ccc(F)cc3)ncc21 [Example 645, 7-Ethyl-2-[2-(4-fluorophenyl)ethyl]-N,N-dimethyl-8-oxo-7,8-dihydro-9H-purine-9-carboxamide] |
| – | – | 82 | 19 | CCCc1ncc2c(n1)n(C(=O)N1CC(c3cccc(F)c3)C1)c(=O)n2C [Example 633] |
| – | – | 97 | 16 | CCn1c(=O)n(C(=O)N(C)C)c2nc(CCc3ccccc3F)ncc21 [Example 643] |
| – | – | 96 | 10 | CN(C)C(=O)n1c(=O)n(C)c2cnc(CCC3CCCCC3)nc21 [Example 615] |
| – | – | 102 | 10 | Cn1c(=O)n(C(=O)N2CC(c3ccc(F)cc3)C2)c2nc(C3CC3)ncc21 [Example 630] |
| – | – | 95 | 10 | CCn1c(=O)n(C(=O)N(C)C)c2nc(CCc3cccc(F)c3)ncc21 [Example 644, 7-Ethyl-2-[2-(3-fluorophenyl)ethyl]-N,N-dimethyl-8-oxo-7,8-dihydro-9H-purine-9-carboxamide] |
| – | – | 100 | 10 | CCCn1c(=O)n(C(=O)N(C)C)c2nc(CCc3cccc(F)c3)ncc21 [Example 647, 2-[2-(3-Fluorophenyl)ethyl]-N,N-dimethyl-8-oxo-7-propyl-7,8-dihydro-9H-purine-9-carboxamide] |
| – | – | 115 | 10 | CCn1c(=O)n(C(=O)N2CC(c3ccc(F)cc3)C2)c2cnc(COC)nc21 [Example 656, 9-Ethyl-7-{[3-(4-fluorophenyl)azetidin-1-yl]carbonyl}-2-(methoxymethyl)-7,9-dihydro-8H-purine-8-one] |
| – | – | 103 | 9 | Cn1c(=O)n(C(=O)N2CCC2)c2nc(CCCC3CCCCC3)ncc21 [Example 619] |
| – | – | 100 | 9 | CCn1c(=O)n(C(=O)N2CCC2)c2nc(CCc3ccc(F)cc3)ncc21 [Example 651, 9-(Azetidin-1-ylcarbonyl)-7-ethyl-2-[2-(4-fluorophenyl)ethyl]-7,9-dihydro-8H-purine-8-one] |
| – | – | 105 | 8 | CN(C)C(=O)n1c(=O)n(C)c2cnc(CCOc3cccc(Cl)c3)nc21 [Example 641, 2-[2-(3-Chlorophenoxy)ethyl]-N,N,7-trimethyl-8-oxo-7,8-dihydro-9H-purine-9-carboxamide] |
| – | – | 102 | 7 | CCCc1ncc2c(n1)n(C(=O)N1CC(c3ccccc3)C1)c(=O)n2C [Example 637] |
| – | – | 93 | 6 | CN(C)C(=O)n1c(=O)n(C)c2cnc(CCCC3CCCC3)nc21 [Example 617] |
